From PMC8843100, “Development of newly synthesised quinazolinone-based CDK2 inhibitors with potent efficacy against melanoma” (Journal of Enzyme Inhibition and Medicinal Chemistry, 2022)

What was measured:
A498 = assay: NCI-60 single dose screen, sulforhodamine B; assay type: cell-based, human; details: Renal cancer A498; single dose 10^−5 M
Method: (§1) In this research, all of the newly synthesised quinazolinones were subjected to in vitro anticancer screening by the National Cancer Institute (USA) against 60 different human cell lines including leukaemia, non-small cell lung cancer, colon cancer, CNS cancer, melanoma, ovarian cancer, renal cancer, prostate cancer, and breast cancer. The tested compounds were evaluated at a single dose (10^−5 M). […] Regarding the benzenesulfonamide counterparts, the introduction of an electron-withdrawing group on the benzenesulfonamide moiety increased the inhibitory activity on the glioblastoma cell line SNB-75 as depicted by the chloro derivative 5c (GI% = 63.09) which was higher than that of the unsubstituted derivative 5a (GI% = 40.06) and the methyl derivative 5b (GI% = 33.03).
(§2) 1. Cytotoxicity screening against a panel of 60 human tumor cell lines
(§3) All the compounds were selected for NCI-60 Human Tumor Cell Lines Screen by the Developmental Therapeutics Program (DTP) at the National Cancer Institute (NCI), Maryland, USA. The operation of this screen utilizes 60 different human tumor cell lines, representing leukemia, non-small-cell lung cancer, colon cancer, CNS cancer, melanoma, ovarian cancer, renal cancer, prostate cancer and breas t cancer.
(§4) The compounds were supplied as dry powder and a single concentration is tested in all 60 cell lines at a single dose of 10 µM solution in dimethyl sulfoxide (DMSO) using Sulforhodamine B assay. Briefly, cells are seeded in 96 well plates at an appropriate density and incubated for 1 day. After 1 day, some of the plates are processed to determine the density time zero. To the remaining plates, compounds are added at 10 µM concentration. Plates are incubated a further 2 days, then fixed and staine d with sulphorhodamine B. Growth inhibition is calculated relative to cells without drug treatment and the time zero control. The use of a time zero control allows the determination of cell kill as well as net growth inhibition. […]

A549/ATCC = assay: NCI-60 single dose screen, sulforhodamine B; assay type: cell-based, human; details: Non-small cell lung cancer A549/ATCC; single dose 10^−5 M
Method: as §1, §2, §3, §4

ACHN = assay: NCI-60 single dose screen, sulforhodamine B; assay type: cell-based, human; details: Renal cancer ACHN; single dose 10^−5 M
Method: as §1, §2, §3, §4

BT-549 = assay: NCI-60 single dose screen, sulforhodamine B; assay type: cell-based, human; details: Breast cancer BT-549; single dose 10^−5 M
Method: as §1, §2, §3, §4

COLO 205 = assay: NCI-60 single dose screen, sulforhodamine B; assay type: cell-based, human; details: Colon cancer COLO 205; single dose 10^−5 M
Method: as §1, §2, §3, §4

EKVX = assay: NCI-60 single dose screen, sulforhodamine B; assay type: cell-based, human; details: Non-small cell lung cancer EKVX; single dose 10^−5 M
Method: as §1, §2, §3, §4

HCT-15 = assay: NCI-60 single dose screen, sulforhodamine B; assay type: cell-based, human; details: Colon cancer HCT-15; single dose 10^−5 M
Method: as §1, §2, §3, §4

HOP-92 = assay: NCI-60 single dose screen, sulforhodamine B; assay type: cell-based, human; details: Non-small cell lung cancer HOP-92; single dose 10^−5 M
Method: as §1, §2, §3, §4

K-562 = assay: NCI-60 single dose screen, sulforhodamine B; assay type: cell-based, human; details: Leukaemia K-562; single dose 10^−5 M
Method: as §1, §2, §3, §4

M14 = assay: NCI-60 single dose screen, sulforhodamine B; assay type: cell-based, human; details: Melanoma M14; single dose 10^−5 M
Method: as §1, §2, §3, §4

MDA-MB-435 = assay: NCI-60 single dose screen, sulforhodamine B; assay type: cell-based, human; details: Melanoma MDA-MB-435; single dose 10^−5 M
Method: as §1, §2, §3, §4

MOLT-4 = assay: NCI-60 single dose screen, sulforhodamine B; assay type: cell-based, human; details: Leukaemia MOLT-4; single dose 10^−5 M
Method: as §1, §2, §3, §4

NCI-H226 = assay: NCI-60 single dose screen, sulforhodamine B; assay type: cell-based, human; details: Non-small cell lung cancer NCI-H226; single dose 10^−5 M
Method: as §1, §2, §3, §4

NCI-H322M = assay: NCI-60 single dose screen, sulforhodamine B; assay type: cell-based, human; details: Non-small cell lung cancer NCI-H322M; single dose 10^−5 M
Method: as §1, §2, §3, §4

NCI-H522 = assay: NCI-60 single dose screen, sulforhodamine B; assay type: cell-based, human; details: Non-small cell lung cancer NCI-H522; single dose 10^−5 M
Method: as §1, §2, §3, §4

OVCAR-3 = assay: NCI-60 single dose screen, sulforhodamine B; assay type: cell-based, human; details: Ovarian cancer OVCAR-3; single dose 10^−5 M
Method: as §1, §2, §3, §4

OVCAR-4 = assay: NCI-60 single dose screen, sulforhodamine B; assay type: cell-based, human; details: Ovarian cancer OVCAR-4; single dose 10^−5 M
Method: as §1, §2, §3, §4

OVCAR-5 = assay: NCI-60 single dose screen, sulforhodamine B; assay type: cell-based, human; details: Ovarian cancer OVCAR-5; single dose 10^−5 M
Method: as §1, §2, §3, §4

PC-3 = assay: NCI-60 single dose screen, sulforhodamine B; assay type: cell-based, human; details: Prostate cancer PC-3; single dose 10^−5 M
Method: as §1, §2, §3, §4

RPMI-8226 = assay: NCI-60 single dose screen, sulforhodamine B; assay type: cell-based, human; details: Leukaemia RPMI-8226; single dose 10^−5 M
Method: as §1, §2, §3, §4

SF-268 = assay: NCI-60 single dose screen, sulforhodamine B; assay type: cell-based, human; details: CNS cancer SF-268; single dose 10^−5 M
Method: as §1, §2, §3, §4

SF-295 = assay: NCI-60 single dose screen, sulforhodamine B; assay type: cell-based, human; details: CNS cancer SF-295; single dose 10^−5 M
Method: as §1, §2, §3, §4

SF-539 = assay: NCI-60 single dose screen, sulforhodamine B; assay type: cell-based, human; details: CNS cancer SF-539; single dose 10^−5 M
Method: as §1, §2, §3, §4

SNB-19 = assay: NCI-60 single dose screen, sulforhodamine B; assay type: cell-based, human; details: CNS cancer SNB-19; single dose 10^−5 M
Method: as §1, §2, §3, §4

SNB-75 = assay: NCI-60 single dose screen, sulforhodamine B; assay type: cell-based, human; details: CNS cancer SNB-75; single dose 10^−5 M
Method: as §1, §2, §3, §4

SR = assay: NCI-60 single dose screen, sulforhodamine B; assay type: cell-based, human; details: Leukaemia SR; single dose 10^−5 M
Method: as §1, §2, §3, §4

SW-620 = assay: NCI-60 single dose screen, sulforhodamine B; assay type: cell-based, human; details: Colon cancer SW-620; single dose 10^−5 M
Method: as §1, §2, §3, §4

TK-10 = assay: NCI-60 single dose screen, sulforhodamine B; assay type: cell-based, human; details: Renal cancer TK-10; single dose 10^−5 M
Method: as §1, §2, §3, §4

U251 = assay: NCI-60 single dose screen, sulforhodamine B; assay type: cell-based, human; details: CNS cancer U251; single dose 10^−5 M
Method: as §1, §2, §3, §4

UACC-62 = assay: NCI-60 single dose screen, sulforhodamine B; assay type: cell-based, human; details: Melanoma UACC-62; single dose 10^−5 M
Method: as §1, §2, §3, §4

UO-31 = assay: NCI-60 single dose screen, sulforhodamine B; assay type: cell-based, human; details: Renal cancer UO-31; single dose 10^−5 M
Method: as §1, §2, §3, §4

| SMILES | GI% at 10^−5 M (A498) | GI% at 10^−5 M (A549/ATCC) | GI% at 10^−5 M (ACHN) | GI% at 10^−5 M (BT-549) | GI% at 10^−5 M (COLO 205) | GI% at 10^−5 M (EKVX) [%] | GI% at 10^−5 M (HCT-15) [%] | GI% at 10^−5 M (HOP-92) | GI% at 10^−5 M (K-562) | GI% at 10^−5 M (M14) | GI% at 10^−5 M (MDA-MB-435) | GI% at 10^−5 M (MOLT-4) | GI% at 10^−5 M (NCI-H226) | GI% at 10^−5 M (NCI-H322M) | GI% at 10^−5 M (NCI-H522) [%] | GI% at 10^−5 M (OVCAR-3) | GI% at 10^−5 M (OVCAR-4) | GI% at 10^−5 M (OVCAR-5) | GI% at 10^−5 M (PC-3) | GI% at 10^−5 M (RPMI-8226) [%] | also measured |
| --- | --- | --- | --- | --- | --- | --- | --- | --- | --- | --- | --- | --- | --- | --- | --- | --- | --- | --- | --- | --- | --- |
| O=c1c2ccccc2nc(COc2ccccc2)n1N=CC=Cc1ccccc1 [Compound 6b, 2-(phenoxymethyl)-3-((3-phenylallylidene)amino)quinazolin-4(3H)-one] | – (– means GI < 10%) | – (– means GI < 10%) | – (– means GI < 10%) | – (– means GI < 10%) | – (– means GI < 10%) | 13.78 | 23.15 | – (– means GI < 10%) | – (– means GI < 10%) | – (– means GI < 10%) | – (– means GI < 10%) | – (– means GI < 10%) | – (– means GI < 10%) | – (– means GI < 10%) | 18.6 | – (– means GI < 10%) | 10.01% | – (– means GI < 10%) | 10.39% | 12.52 | GI% at 10^−5 M (SF-268): – (– means GI < 10%); GI% at 10^−5 M (SF-295): – (– means GI < 10%); GI% at 10^−5 M (SF-539): – (– means GI < 10%); GI% at 10^−5 M (SNB-19): 17.13%; GI% at 10^−5 M (SNB-75): 16.57%; GI% at 10^−5 M (SR): 14.34%; GI% at 10^−5 M (SW-620): – (– means GI < 10%); GI% at 10^−5 M (TK-10): – (– means GI < 10%); GI% at 10^−5 M (U251): – (– means GI < 10%); GI% at 10^−5 M (UACC-62): – (– means GI < 10%); GI% at 10^−5 M (UO-31): 10.2%; melting point: 211 to 213 °C |
| CN1CCN(CC(=O)Nn2c(COc3ccccc3)nc3ccccc3c2=O)CC1 [Compound 8a, 2–(4-methylpiperazin-1-yl)-N-(4-oxo-2-(phenoxymethyl)quinazolin-3(4H)-yl)acetamide] | 18.24% | – (– means GI < 10%) | – (– means GI < 10%) | – (– means GI < 10%) | 15.89% | 13.93 | 44.04 | – (– means GI < 10%) | 67.8% | 21.06% | 94.15% | 11.86% | 15.39% | – (– means GI < 10%) | 24.6 | – (– means GI < 10%) | – (– means GI < 10%) | – (– means GI < 10%) | – (– means GI < 10%) | 23.17 | GI% at 10^−5 M (SF-268): – (– means GI < 10%); GI% at 10^−5 M (SF-295): – (– means GI < 10%); GI% at 10^−5 M (SF-539): 11.37%; GI% at 10^−5 M (SNB-19): 13.65%; GI% at 10^−5 M (SNB-75): 27.37%; GI% at 10^−5 M (SR): 69.55%; GI% at 10^−5 M (SW-620): 42.80%; GI% at 10^−5 M (TK-10): – (– means GI < 10%); GI% at 10^−5 M (U251): 18.55%; GI% at 10^−5 M (UACC-62): 30.69%; GI% at 10^−5 M (UO-31): 29.32%; melting point: 158 to 160 °C |
